{
  "source": "patent US20090155367A1",
  "about": "“Occlusion of Fallopian Tubes” (priority 2005, published 2009)",
  "key": {"Fallopian tubes": {"test_system": "Fallopian tubes", "settings": "even when massive tubal necrosis was achieved; cited from earlier work"}, "[1]": {"test_system": "beef muscle tissue (fillet mignon)", "assay": "Tissue necrosis with AgNO3 bearing beads placed on beef muscle tissue", "parameters": "key: +: slight visible pitting of the tissue surface; ++: moderate pitting of tissue surface with slight blackening of the tissue; +++: significant pitting with moderate blackening of the tissue; ++++: severe pitting with complete blackening of the tissue; +++++: severe pitting with complete blackening of the tissue, spreading beyond the point of contact; −−−: no observed necrosis", "settings": "tissue under bead on beef muscle surface", "source_text": "The degree of necrosis was rated as follows: slight visible pitting of the tissue surface (+); moderate pitting of tissue surface with slight blackening of the tissue (++); significant pitting with moderate blackening of the tissue (+++); severe pitting with complete blackening of the tissue (++++); severe pitting with complete blackening of the tissue, spreading beyond the point of contact (+++++); and no observed necrosis (−−−)"}},
  "data": [
    {"compound": "O=[N+]([O-])[O-].[Ag+]", "note": "[AgNO3 Crystal, silver nitrate]", "values": [
      {"measurement": "Fallopian tube closure after application", "setting": "Fallopian tubes", "result": "a significant proportion of Fallopian tubes remained open"},
      {"measurement": "Tissue Necrosis (degree of necrosis)", "setting": "[1]; Time 5 minutes", "result": "+++"},
      {"measurement": "Tissue Necrosis (degree of necrosis)", "setting": "[1]; Time 10 minutes", "result": "++++"},
      {"measurement": "Tissue Necrosis (degree of necrosis)", "setting": "[1]; Time 15 minutes", "result": "+++++"},
      {"measurement": "Tissue Necrosis (degree of necrosis)", "setting": "[1]; Time 20 minutes", "result": "+++++"}
    ]}
  ]
}
